Experimental data as given in patent US10202658B2, “Methods for determining hypersusceptibility of HIV-1 to non-nucleoside reverse transcriptase inhibitors” (Monogram Biosciences, Inc., priority 2005, dated 2019).

System: HIV-1 clinical isolates grouped by RT mutations
Test: Pairwise comparison of NNRTI fold change between groups of clinical isolates (Student's T-test, Bonferroni's Multiple Comparison Test)
Assay type: cell-based
Protocol: This example provides methods and compositions for identifying mutations that correlate with hypersusceptibility to a NNRTI. Resistance test vectors were constructed and used as described in Example 1. Resistance test vectors derived from patient samples or clones derived from the resistance test vector pools were tested in a resistance assay to determine accurately and quantitatively the relative EFV, DLV, or NVP resistance or susceptibility compared to the median observed resistance or susceptibility.
To identify mutations associated with NNRTI hypersusceptibility, the following analysis was performed. […] The TAMs referenced in. Table 1 include M41L, D67N, K70R, L210W, T215FY, and K219X, while the NAMs referenced include K65R, T69X, L74IV, V75X, and M184IV. Isolates without NRTI, NNRTI or PI mutations served as a wild type (WT) reference group. Further comparison groups comprised isolates with three TAMS including T215Y (+/−H208Y, +/−V118I) or three TAMS including K70R. Scatter plots and statistical tests (See FIGS. 1-6) were generated using Prism 4.0 (GraphPad, San Diego, Calif.)
In addition, a pairwise comparison between two sets of data was conducted using Bonferroni's Multiple Comparison Test using the Prism 4.0 software. The results of the comparison are presented in Tables 2, 3, and 4, appended to the end of this document. Samples with K65R, K65R+M184V, or 2 TAMs in combination with T215Y had over 40% with EFV FC<0.4.

Structure (SMILES): CC(C)Nc1cccnc1N1CCN(C(=O)c2cc3cc(NS(C)(=O)=O)ccc3[nH]2)CC1 [DLV, delavirdine]
- Mean Diff. of fold change (1 NAM vs 2 NAMs): 0.2985
- Mean Diff. of fold change (1 NAM vs 3 NAMs): 0.293
- Mean Diff. of fold change (1 NAM vs K65R): 0.3868
- Mean Diff. of fold change (1 NAM vs K65R + M184V): 0.5114
- Mean Diff. of fold change (1 NAM vs K70R_3_TAMs): −0.5755
- Mean Diff. of fold change (1 NAM vs M184V): −0.007762
- Mean Diff. of fold change (1 NAM vs T69): −0.1256
- Mean Diff. of fold change (1 NAM vs T215Y_3_TAMs): 0.6784
- Mean Diff. of fold change (1 NAM vs T215Y_3_TAMs_118): 0.6483
- Mean Diff. of fold change (1 NAM vs T215Y_3_TAMs_208): 0.7831
- Mean Diff. of fold change (1 NAM vs T215Y_3_TAMs_no118): 0.6983
- Mean Diff. of fold change (1 NAM vs T215Y_3_TAMs_no208): 0.6612
- Mean Diff. of fold change (2 NAMs vs 3 NAMs): −0.005498
- Mean Diff. of fold change (2 NAMs vs K65R): 0.08826
- Mean Diff. of fold change (2 NAMs vs K65R + M184V): 0.2128
- Mean Diff. of fold change (2 NAMs vs K70R_3_TAMs): −0.874
- Mean Diff. of fold change (2 NAMs vs M184V): −0.3063
- Mean Diff. of fold change (2 NAMs vs T69): −0.4242
- Mean Diff. of fold change (2 NAMs vs T215Y_3_TAMs): 0.3799
- Mean Diff. of fold change (2 NAMs vs T215Y_3_TAMs_118): 0.3498
- Mean Diff. of fold change (2 NAMs vs T215Y_3_TAMs_208): 0.4845
- Mean Diff. of fold change (2 NAMs vs T215Y_3_TAMs_no118): 0.3997
- Mean Diff. of fold change (2 NAMs vs T215Y_3_TAMs_no208): 0.3627
- Mean Diff. of fold change (3 NAMs vs K65R): 0.09376
- Mean Diff. of fold change (3 NAMs vs K65R + M184V): 0.2183
- Mean Diff. of fold change (3 NAMs vs K70R_3_TAMs): −0.8685
- Mean Diff. of fold change (3 NAMs vs M184V): −0.3008
- Mean Diff. of fold change (3 NAMs vs T69): −0.4187
- Mean Diff. of fold change (3 NAMs vs T215Y_3_TAMs): 0.3854
- Mean Diff. of fold change (3 NAMs vs T215Y_3_TAMs_118): 0.3553
- Mean Diff. of fold change (3 NAMs vs T215Y_3_TAMs_208): 0.49
- Mean Diff. of fold change (3 NAMs vs T215Y_3_TAMs_no118): 0.4052
- Mean Diff. of fold change (3 NAMs vs T215Y_3_TAMs_no208): 0.3682
- Mean Diff. of fold change (K65R + M184V vs K70R_3_TAMs): −1.087
- Mean Diff. of fold change (K65R + M184V vs T215Y_3_TAMs): 0.167
- Mean Diff. of fold change (K65R + M184V vs T215Y_3_TAMs_118): 0.137
- Mean Diff. of fold change (K65R + M184V vs T215Y_3_TAMs_208): 0.2717
- Mean Diff. of fold change (K65R + M184V vs T215Y_3_TAMs_no118): 0.1869
- Mean Diff. of fold change (K65R + M184V vs T215Y_3_TAMs_no208): 0.1499
- Mean Diff. of fold change (K65R vs K65R + M184V): 0.1246
- Mean Diff. of fold change (K65R vs K70R_3_TAMs): −0.9623
- Mean Diff. of fold change (K65R vs M184V): −0.3946
- Mean Diff. of fold change (K65R vs T69): −0.5124
- Mean Diff. of fold change (K65R vs T215Y_3_TAMs): 0.2916
- Mean Diff. of fold change (K65R vs T215Y_3_TAMs_118): 0.2615
- Mean Diff. of fold change (K65R vs T215Y_3_TAMs_208): 0.3963
- Mean Diff. of fold change (K65R vs T215Y_3_TAMs_no118): 0.3115
- Mean Diff. of fold change (K65R vs T215Y_3_TAMs_no208): 0.2744
- Mean Diff. of fold change (K70R_3_TAMs vs T215Y_3_TAMs_118): 1.224
- Mean Diff. of fold change (K70R_3_TAMs vs T215Y_3_TAMs_no118): 1.274
- Mean Diff. of fold change (M184V vs K65R + M184V): 0.5191
- Mean Diff. of fold change (M184V vs K70R_3_TAMs): −0.5677
- Mean Diff. of fold change (M184V vs T69): −0.1179
- Mean Diff. of fold change (M184V vs T215Y_3_TAMs): 0.6862
- Mean Diff. of fold change (M184V vs T215Y_3_TAMs_118): 0.6561
- Mean Diff. of fold change (M184V vs T215Y_3_TAMs_208): 0.7908
- Mean Diff. of fold change (M184V vs T215Y_3_TAMs_no118): 0.706
- Mean Diff. of fold change (M184V vs T215Y_3_TAMs_no208): 0.669
- Mean Diff. of fold change (T69 vs K65R + M184V): 0.637
- Mean Diff. of fold change (T69 vs K70R_3_TAMs): −0.4499
- Mean Diff. of fold change (T69 vs T215Y_3_TAMs): 0.8041
- Mean Diff. of fold change (T69 vs T215Y_3_TAMs_118): 0.774
- Mean Diff. of fold change (T69 vs T215Y_3_TAMs_208): 0.9087
- Mean Diff. of fold change (T69 vs T215Y_3_TAMs_no118): 0.8239
- Mean Diff. of fold change (T69 vs T215Y_3_TAMs_no208): 0.7869
- Mean Diff. of fold change (T215Y_3_TAMs vs K70R_3_TAMs): −1.254
- Mean Diff. of fold change (T215Y_3_TAMs vs T215Y_3_TAMs_118): −0.03008
- Mean Diff. of fold change (T215Y_3_TAMs vs T215Y_3_TAMs_208): 0.1046
- Mean Diff. of fold change (T215Y_3_TAMs vs T215Y_3_TAMs_no118): 0.01984
- Mean Diff. of fold change (T215Y_3_TAMs vs T215Y_3_TAMs_no208): −0.01718
- Mean Diff. of fold change (T215Y_3_TAMs_208 vs K70R_3_TAMs): −1.359
- Mean Diff. of fold change (T215Y_3_TAMs_208 vs T215Y_3_TAMs_118): −0.1347
- Mean Diff. of fold change (T215Y_3_TAMs_208 vs T215Y_3_TAMs_no118): −0.0848
- Mean Diff. of fold change (T215Y_3_TAMs_208 vs T215Y_3_TAMs_no208): −0.1218
- Mean Diff. of fold change (T215Y_3_TAMs_no118 vs T215Y_3_TAMs_118): −0.04992
- Mean Diff. of fold change (T215Y_3_TAMs_no208 vs K70R_3_TAMs): −1.237
- Mean Diff. of fold change (T215Y_3_TAMs_no208 vs T215Y_3_TAMs_118): −0.0129
- Mean Diff. of fold change (T215Y_3_TAMs_no208 vs T215Y_3_TAMs_no118): 0.03702
- mean fold change (FC) compared to the WT population (all groups containing NAMs or the combination of TAMs shown in Table 1, p<0.0001, Student's T-test): significantly lower
- Mean Diff. of fold change (wt vs 1 NAM): 0.3819
- Mean Diff. of fold change (wt vs 2 NAMs): 0.6804
- Mean Diff. of fold change (wt vs 3 NAMs): 0.6749
- Mean Diff. of fold change (wt vs K65R): 0.7687
- Mean Diff. of fold change (wt vs K65R + M184V): 0.8932
- Mean Diff. of fold change (wt vs K70R_3_TAMs): −0.1936
- Mean Diff. of fold change (wt vs M184V): 0.3741
- Mean Diff. of fold change (wt vs T69): 0.2562
- Mean Diff. of fold change (wt vs T215Y_3_TAMs): 1.06
- Mean Diff. of fold change (wt vs T215Y_3_TAMs_118): 1.03
- Mean Diff. of fold change (wt vs T215Y_3_TAMs_208): 1.165
- Mean Diff. of fold change (wt vs T215Y_3_TAMs_no118): 1.08
- Mean Diff. of fold change (wt vs T215Y_3_TAMs_no208): 1.043
